{
  "source": "ChEMBL document CHEMBL5244281",
  "about": "“Tackling multidrug-resistant Staphylococcus aureus by natural products and their analogues acting as NorA efflux pump inhibitors” (Bioorg Med Chem, 2023)",
  "key": {"[1]": {"test_system": "Staphylococcus aureus", "test": "Antibacterial activity against norfloxacin resistant Staphylococcus aureus RN4220 overexpressing MsrA efflux pump gene assessed as bacterial growth inhibition incubated for 18 to 24 hrs by NCCLS protocol based microdilution method", "format": "functional", "details": "time 18-24 hrs"}, "[2]": {"test_system": "Staphylococcus aureus", "test": "Antibacterial activity against norfloxacin resistant Staphylococcus aureus 1199B overexpressing NorA efflux pump gene assessed as bacterial growth inhibition incubated for 18 to 24 hrs by NCCLS protocol based microdilution method", "format": "functional", "details": "time 18-24 hrs"}, "[3]": {"molecular_target": "T1, Quinolone resistance protein NorA (Staphylococcus aureus) (UniProt P0A0J7)", "T1 sequence (whole entry)": "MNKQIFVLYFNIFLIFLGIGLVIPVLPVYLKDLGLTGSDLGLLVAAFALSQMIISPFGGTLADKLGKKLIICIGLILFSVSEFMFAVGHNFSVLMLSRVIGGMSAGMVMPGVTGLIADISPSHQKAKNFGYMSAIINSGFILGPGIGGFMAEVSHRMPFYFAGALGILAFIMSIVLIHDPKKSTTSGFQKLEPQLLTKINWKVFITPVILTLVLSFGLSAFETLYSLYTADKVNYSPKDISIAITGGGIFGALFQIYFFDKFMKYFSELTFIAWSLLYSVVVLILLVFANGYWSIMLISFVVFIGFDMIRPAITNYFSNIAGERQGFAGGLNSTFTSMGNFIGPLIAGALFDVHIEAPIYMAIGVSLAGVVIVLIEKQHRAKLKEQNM", "test": "Inhibition of NorA efflux pump in Staphylococcus aureus 1199B overexpressing NorA efflux pump assessed as reduction in EtBr MIC at 128 ug/ml using EtBr as substrate by resazurin based assay (Rvb= 32 ug/ml)", "details": "dose 128.0 µg/ml"}, "[4]": {"test_system": "Staphylococcus aureus", "test": "Antibacterial activity against norfloxacin resistant Staphylococcus aureus IS-58 overexpressing TetK efflux pump gene assessed as bacterial growth inhibition incubated for 18 to 24 hrs by NCCLS protocol based microdilution method", "format": "functional", "details": "time 18-24 hrs"}, "[5]": {"test_system": "Staphylococcus aureus", "test": "Synergistic antibacterial activity against methicillin resistant Staphylococcus aureus clinical isolates assessed as fractional inhibitory concentration index in presence of ciprofloxacin", "format": "functional"}, "[6]": {"test_system": "Staphylococcus aureus", "test": "Synergistic antibacterial activity against methicillin resistant Staphylococcus aureus clinical isolates assessed as fractional inhibitory concentration index in presence of norfloxacin", "format": "functional"}, "[7]": {"test_system": "Staphylococcus aureus", "test": "Antibacterial activity against methicillin resistant Staphylococcus aureus clinical isolates assessed as bacterial growth inhibition", "format": "functional"}, "[8]": {"test_system": "Staphylococcus aureus", "test": "Synergistic antibacterial activity against methicillin resistant Staphylococcus aureus clinical isolates assessed as fractional inhibitory concentration index in presence of ofloxacin", "format": "functional"}, "[9]": {"test_system": "Staphylococcus aureus", "test": "Potentiation of erythromycin-induced inhibition of MsrA pump in Staphylococcus aureus RN4220/pUL5054 assessed as reduction in erythromycin MIC incubated for 24 hrs by Resazurin based assay (RVB= 645.08 ug/ml)"}, "[10]": {"test_system": "Staphylococcus aureus", "test": "Antibacterial activity against methicillin-resistant Staphylococcus aureus 1199B overexpressing NorA efflux pump assessed as bacterial growth inhibition incubated for 24 hrs by resazurin based broth dilution method", "format": "functional"}, "[11]": {"test_system": "Staphylococcus aureus", "details": "IS-58, time 24.0 hrs"}, "[12]": {"molecular_target": "T1, Quinolone resistance protein NorA (Staphylococcus aureus)", "details": "1199B, time 24.0 hrs"}, "[13]": {"test_system": "Staphylococcus aureus", "details": "IS-58, time 24.0 hrs", "remark": "listed apart in the source"}, "[14]": {"molecular_target": "T1, Quinolone resistance protein NorA (Staphylococcus aureus)", "details": "1199B, time 24.0 hrs", "remark": "listed apart in the source"}, "[15]": {"test_system": "Staphylococcus aureus", "test": "Antibacterial activity against methicillin-resistant Staphylococcus aureus 1199 assessed as bacterial growth inhibition incubated for 24 hrs by resazurin based broth dilution method", "format": "functional"}, "[16]": {"test_system": "Staphylococcus aureus", "test": "Antibacterial activity against Staphylococcus aureus IS-58 overexpressing TetK pump assessed as bacterial growth inhibition incubated for 24 hrs by resazurin based broth dilution method", "format": "functional"}, "[17]": {"test_system": "Staphylococcus aureus", "test": "Antibacterial activity against methicillin-resistant Staphylococcus aureus RN4220/pUL5054 overexpressing MsrA efflux pump assessed as bacterial growth inhibition incubated for 24 hrs by resazurin based broth dilution method", "format": "functional"}, "[18]": {"molecular_target": "T1, Quinolone resistance protein NorA (Staphylococcus aureus)", "test": "Modulation of norfloxacin-induced inhibition of NorA efflux pump in Staphylococcus aureus 1199B overexpressing NorA efflux pump assessed as reduction in norfloxacin MIC at 1/4 times of MIC by resazurin based assay"}, "[19]": {"test_system": "Staphylococcus aureus", "test": "Antibacterial activity against norfloxacin resistant Staphylococcus aureus 1199B harboring NorA efflux pump assessed as bacterial growth inhibition incubated for 24 hrs by CLSI protocol based broth microdilution method", "format": "functional"}, "[20]": {"molecular_target": "T1, Quinolone resistance protein NorA (Staphylococcus aureus)", "test": "Potentiation of ciprofloxacin-induced inhibition of NorA efflux pump in Staphylococcus aureus 1199B overexpressing NorA efflux pump assessed as ciprofloxacin MIC at 100 ug/ml for 18 to 20 hrs by checkerboard method (Rvb=4 ug/ml)", "details": "dose 100.0 µg/ml, time 18-20 hrs"}, "[21]": {"molecular_target": "T1, Quinolone resistance protein NorA (Staphylococcus aureus)", "test": "Inhibition of NorA efflux pump in Staphylococcus aureus 1199B overexpressing NorA efflux pump assessed as minimum effective concentration for 18 to 20 hrs", "details": "time 18-20 hrs"}, "[22]": {"molecular_target": "T1, Quinolone resistance protein NorA (Staphylococcus aureus)", "test": "Potentiation of ciprofloxacin-induced inhibition of NorA efflux pump in Staphylococcus aureus 1199 assessed as ciprofloxacin MIC at 100 ug/ml for 18 to 20 hrs by checkerboard method (Rvb=0.25 ug/ml)", "details": "dose 100.0 µg/ml, time 18-20 hrs"}, "[23]": {"test_system": "Staphylococcus aureus", "test": "Antibacterial activity against Staphylococcus aureus EMRSA-15 assessed as bacterial growth inhibition incubated for 18 hrs by MTT assay", "format": "functional"}, "[24]": {"test_system": "Staphylococcus aureus", "test": "Synergistic antibacterial activity against Staphylococcus aureus EMRSA-15 assessed as fractional Inhibitory concentration index at 64 ug/ml in presence of norfloxacin by broth dilution method", "format": "functional", "details": "dose 64 µg/ml"}, "[25]": {"test_system": "Staphylococcus aureus", "test": "Antibacterial activity against Staphylococcus aureus EMRSA-16 assessed as bacterial growth inhibition incubated for 18 hrs by MTT assay", "format": "functional"}, "[26]": {"test_system": "Staphylococcus aureus", "test": "Antibacterial activity against tetracycline-resistant Staphylococcus aureus XU212 assessed as bacterial growth inhibition incubated for 18 hrs by MTT assay", "format": "functional"}, "[27]": {"test_system": "Staphylococcus aureus", "test": "Antibacterial activity against Staphylococcus aureus RN4220 assessed as bacterial growth inhibition incubated for 18 hrs by MTT assay", "format": "functional"}, "[28]": {"test_system": "Staphylococcus aureus", "test": "Synergistic antibacterial activity against Staphylococcus aureus 1199B overexpressing NorA assessed as fractional Inhibitory concentration index at 64 ug/ml in presence of norfloxacin by broth dilution method", "format": "functional", "details": "dose 64 µg/ml"}, "[29]": {"test_system": "Staphylococcus aureus", "test": "Antibacterial activity against Staphylococcus aureus 1199B overexpressing NorA assessed as bacterial growth inhibition incubated for 18 hrs by MTT assay", "format": "functional"}, "[30]": {"molecular_target": "T1, Quinolone resistance protein NorA (Staphylococcus aureus)", "details": "1199B, dose 64.0 µg/ml"}, "[31]": {"test_system": "Staphylococcus aureus", "test": "Antibacterial activity against Staphylococcus aureus ATCC25923 assessed as bacterial growth inhibition incubated for 18 hrs by MTT assay", "format": "functional"}, "[32]": {"test_system": "Staphylococcus aureus", "test": "Synergistic antibacterial activity against Staphylococcus aureus RN4220 assessed as fractional Inhibitory concentration index at 64 ug/ml in presence of norfloxacin by broth dilution method", "format": "functional", "details": "dose 64 µg/ml"}, "[33]": {"test_system": "Mycolicibacterium smegmatis", "test": "Antibacterial activity against Mycobacterium smegmatis ATCC 607 assessed as bacterial growth inhibition incubated for 3 days by CLSI protocol based microbroth dilution method", "format": "functional", "details": "ATCC 607, 72 h, time 3 day"}, "[34]": {"test_system": "Staphylococcus aureus", "test": "Antibacterial activity against Staphylococcus aureus NCTC 8325-4 assessed as bacterial growth inhibition incubated for 18 hrs by broth microdilution method", "format": "functional"}},
  "data": [
    {"smiles": "COc1c2ccoc2c(OC)c2oc(=O)ccc12", "note": "[ISOPIMPINELLIN]", "values": [
      {"measurement": "MIC", "setting": "[1]", "value": "> 256", "unit": "µg/mL"},
      {"measurement": "MIC", "setting": "[2]", "value": "> 256", "unit": "µg/mL"},
      {"measurement": "MIC", "setting": "[3]", "value": 4, "unit": "µg/mL"},
      {"measurement": "MIC", "setting": "[4]", "value": "> 256", "unit": "µg/mL"}
    ]},
    {"smiles": "CC1=CCC[C@@]2(C)[C@@]1(C)CC[C@@H](C)[C@]2(C)CCC1=CC(=O)O[C@@H]1O", "values": [
      {"measurement": "fractional inhibitory concentration index (FICI)", "setting": "[5]", "value": 0.324},
      {"measurement": "fractional inhibitory concentration index (FICI)", "setting": "[6]", "value": 0.315},
      {"measurement": "MIC", "setting": "[7]", "value": 15.6, "unit": "µg/mL"},
      {"measurement": "fractional inhibitory concentration index (FICI)", "setting": "[8]", "value": 0.324}
    ]},
    {"smiles": "O=c1c(O)c(-c2ccc(O)c(O)c2)oc2cc(O)cc(O)c12", "note": "[QUERCETIN]", "values": [
      {"measurement": "MIC", "setting": "[9]", "value": 512, "unit": "µg/mL"},
      {"measurement": "MIC", "setting": "[10]", "value": "≥ 1020", "unit": "µg/mL"},
      {"measurement": "MIC", "setting": "[11]", "value": 12.7, "unit": "µg/mL"},
      {"measurement": "MIC", "setting": "[12]", "value": 128, "unit": "µg/mL"},
      {"measurement": "MIC", "setting": "[13]", "value": 128, "unit": "µg/mL"},
      {"measurement": "MIC", "setting": "[14]", "value": 12.7, "unit": "µg/mL"},
      {"measurement": "MIC", "setting": "[15]", "value": "≥ 1020", "unit": "µg/mL"},
      {"measurement": "MIC", "setting": "[16]", "value": 512, "unit": "µg/mL"},
      {"measurement": "MIC", "setting": "[17]", "value": "≥ 1020", "unit": "µg/mL"}
    ]},
    {"smiles": "O=c1c(O)c(-c2cc(O)c(O)c(O)c2)oc2cc(O)cc(O)c12", "note": "[MYRICETIN]", "values": [
      {"measurement": "MIC", "setting": "[18]", "value": 256, "unit": "µg/mL"},
      {"measurement": "MIC", "setting": "[19]", "value": 256, "unit": "µg/mL"}
    ]},
    {"smiles": "CC(C)/C=C/CCCCC(=O)NCc1ccc(O)c(OCc2nnc(Nc3cccc(Br)c3)o2)c1", "values": [
      {"measurement": "MIC", "setting": "[20]", "value": 0.5, "unit": "µg/mL"},
      {"measurement": "MEC", "setting": "[21]", "value": 12.5, "unit": "µg/mL"},
      {"measurement": "MIC", "setting": "[22]", "value": 0.12, "unit": "µg/mL"}
    ]},
    {"smiles": "COc1ccc(-c2cc(=O)c3c(O)cc(O)cc3o2)cc1O", "note": "[DIOSMETIN]", "values": [
      {"measurement": "MIC", "setting": "[23]", "value": 32, "unit": "µg/mL"},
      {"measurement": "fractional inhibitory concentration index (FICI)", "setting": "[24]", "value": 0.09},
      {"measurement": "MIC", "setting": "[25]", "value": 8, "unit": "µg/mL"},
      {"measurement": "MIC", "setting": "[26]", "value": 32, "unit": "µg/mL"},
      {"measurement": "MIC", "setting": "[27]", "value": 32, "unit": "µg/mL"},
      {"measurement": "fractional inhibitory concentration index (FICI)", "setting": "[28]", "value": 0.38},
      {"measurement": "MIC", "setting": "[29]", "value": 32, "unit": "µg/mL"},
      {"measurement": "MIC", "setting": "[30]", "value": 16, "unit": "µg/mL"},
      {"measurement": "MIC", "setting": "[31]", "value": 32, "unit": "µg/mL"},
      {"measurement": "fractional inhibitory concentration index (FICI)", "setting": "[32]", "value": 0.38}
    ]},
    {"smiles": "COc1c(O)c(OC)c2oc(-c3ccc(O)cc3)c(OC)c(=O)c2c1O", "values": [
      {"measurement": "MIC", "setting": "[33]", "value": 75, "unit": "µg/mL"},
      {"measurement": "MIC", "setting": "[34]", "value": "> 800", "unit": "µg/mL"}
    ]}
  ]
}
